The values that follow come from US9289398B2, “Methods for the production of functional protein from DNA having a nonsense mutation and the treatment of disorders associated therewith” (PTC Therapeutics, Inc., priority 2006, dated 2016).

The subject of data set [1] is CFTR. The data set is described as follows: Transepithelial potential difference (TEPD) chloride conductance, Phase 2 study in nonsense-mutation-mediated cystic fibrosis. The class given is in vivo, human. The protocol:
The measurement of transepithelial potential difference (TEPD), also known as nasal potential difference, provides a sensitive evaluation of sodium and chloride transport directly in secretory epithelial cells via assessment of transepithelial bioelectric properties (Knowles et al., 1981, N. Engl. J. Med. 305(25):1489-95; Knowles et al., 1995, Hum. Gene Ther. 6:445). TEPD is performed in each nostril using standardized techniques (Standaert et al., 2004, Ped. Pulm. 37:385-92). In the procedure, a small plastic catheter is used to assess electrical differences across the outer cell membrane of nasal mucosa cells in the nostril. TEPD values are expressed in millivolts, or mV. A chloride conductance equal to or more electrically negative than −5.0 mV is generally considered to be in the normal range. […] TEPD assessments can also be made on rectal epithelial cells and lower respiratory epithelial cells. Because of the role of the CFTR protein in transporting chloride ions across cell membranes, and because of the absence of this protein, cystic fibrosis patients have an abnormal TEPD chloride conductance. As an endpoint, TEPD has the advantage that it can detect chloride transport changes that are a quantitative integration of the presence, functional activity, and apical location of the CFTR in airway cells. Furthermore, it is a direct measure of CFTR activity that is not likely to be affected by supportive or palliative treatments for CF (with the possible exception of systemically administered aminoglycoside antibiotics). Of importance is evidence that TEPD values can correlate with the degree of pulmonary dysfunction and radiographic abnormality (Ho et al., 1997, Eur. Respir. J. 10(9):2018-22; Fajac et al., 1998, Eur. Respir. J. 12(6):1295-300; Sermet-Gaudelus et al., 2005, Am. J. Respit. Crit. Care Med. 171(9):1026-1031). […] Under baseline conditions, TEPD-assessed chloride channel activity is very unlikely to normalize spontaneously in patients with CF; any observed improvements in TEPD-assessed chloride channel activity are expected to specifically denote pharmacological activity of CFTR-correcting therapies. Accordingly, it has become the primary endpoint in Phase 1-2 pharmacological and gene replacement studies aimed at correcting CFTR dysfunction (Peckham et al., 1995, AJ. Clin Sci (London). 89(3):277-84; Wilschanski et al., 2003, N. Engl. J. Med. 349(15):1433-41).
3-[5-(2-Fluoro-phenyl)-[1,2,4]oxadiazol-3-yl]-benzoic acid was provided in a formulation described herein.
Clinical endpoints were evaluated using the procedures set forth above. TEPD measurements were made prior to treatment and on days 14 and 28 of Cycle 1 and Cycle 2. Nasal mucosal curettage was collected from each nostril of each patient prior to treatment and on days 14 and 28 of Cycle 1 and Cycle 2. Pulmonary tests, including FEV1, FVC and MEF25-75, were measured prior to treatment, on day −1 of Cycle 2, on day 13 or 14 of Cycle 1 and day 13 or 14 of Cycle 2 in the study being conducted in Israel and the same parameters were measured prior to treatment and on day 13 or 14 of Cycle 2 in the study being conducted in the United States.
This is the average of the changes from the beginning to the end of the treatment period in TEPD chloride conductance within each study participant. For example, if the changes in TEPD chloride conductance within each of three participants were −7.0 mV, −2.0 mV and −9.0 mV, the mean change in TEPD chloride conductance among these participants would be −6.0 mV.
For purposes of the trials, a chloride conductance response is defined as a TEPD chloride conductance improvement of at least −5 mV. For example, in a patient with a TEPD chloride conductance value of +1.0 my at baseline and a TEPD chloride conductance value of −6.0 mV at the end of treatment, the TEPD chloride conductance improvement would be −7.0 mV, representing a chloride conductance response. […]

The nature of data set [2]: Safety, tolerability and compliance, DMD Phase 2 interim (6 patients). In kind it is in vivo, human. The protocol: 3-[5-(2-Fluoro-phenyl)-[1,2,4]oxadiazol-3-yl]-benzoic acid is provided in a formulation described herein. Treatment is administered over 28 days for each treatment cohort. An initial cohort of patients are treated daily for 28 days with 3-[5-(2-fluoro-phenyl)-[1,2,4]oxadiazol-3-yl]-benzoic acid at a given dose level (e.g., 4-, 4-, and 8-mg/kg) TID. If the initial patients tolerate the drug, then a second cohort of patients receives 3-[5-(2-fluoro-phenyl)-[1,2,4]oxadiazol-3-yl]-benzoic acid at a higher dose level (e.g., 10-, 10-, and 20-mg/kg) TID. Thus, each patient receives a total of 84 doses of 3-[5-(2-fluoro-phenyl)-[1,2,4]oxadiazol-3-yl]-benzoic acid. After the end of 28 days of treatment, each patient is followed for an additional 28 days without treatment.
Six patients were administered 3-[5-(2-fluoro-phenyl)-[1,2,4]oxadiazol-3-yl]-benzoic acid TID in a regimen consisting of 4 mg/kg with breakfast, 4 mg/kg with lunch, and 8 mg/kg with supper, for a total daily dose of 16 mg/kg. All patients were ambulatory, but had characteristic signs and symptoms of DMD, including some degree of muscle dysfunction and elevated serum CK concentrations. […] These adverse events included diarrhea in 1 patient; abdominal pain in 1 patient; and flatulence in 2 patients. […] Treatment compliance was good, with patients taking >95% of the intended total drug treatment for 28 days at the lower dose level.

[3] abbreviates: Higher dose level 10, 10, 20 mg/kg TID oral 14 days, 15 CF patients.
The mark [4] stands for this setting: Lower dose level 4, 4, 8 mg/kg TID oral 14 days, 15 CF patients.
Where [5] appears, read: 6 DMD patients, 4, 4, 8 mg/kg TID.
Setting [6] is: of 6 DMD patients, 4, 4, 8 mg/kg TID.

For the molecule `O=C(O)c1cccc(-c2noc(-c3ccccc3F)n2)c1` [3-[5-(2-fluoro-phenyl)-[1,2,4]oxadiazol-3-yl]-benzoic acid], the “TEPD chloride conductance in patients with different types of nonsense mutations within the CFTR gene” value in data set [1] (15 CF patients) is listed as “Improvements in TEPD chloride conductance”. For the same molecule, in data set [1] (setting [3]), the “Mean change in TEPD chloride conductance: Best of nostrils” value was −6.4 mV and the “Mean change in TEPD chloride conductance: Mean of both nostrils” value is −4.4 mV. Also, in data set [1] (setting [4]), the “Mean change in TEPD chloride conductance: Best of nostrils” value is on record as −9.0 mV and the “Mean change in TEPD chloride conductance: Mean of both nostrils” value is recorded as −6.7 mV. Moreover, in data set [1] (lower 4, 4, 8 mg/kg versus higher 10, 10, 20 mg/kg), the “Treatment effects at the lower and the higher dose levels (TEPD chloride conductance)” value is on record as “not statistically significant”. Moreover, the “Discontinuation of treatment due to an adverse event” value in data set [2] (6 DMD patients) is “No patient discontinued treatment”. Further, in data set [2] (setting [5]), the “Physical examinations, vital sign measurements, electrocardiograms” value is “no safety concerns” and the “Serum liver enzymes, bilirubin, creatinine, blood urea nitrogen” value was “No clinically significant elevations”. In addition, the “Serious drug-related adverse events” value in data set [2] (6 DMD patients, 4, 4, 8 mg/kg TID, 28 days) is “No serious drug-related adverse events”. For the same molecule, the “Severity of potentially drug-related adverse events” value in data set [2] (6 DMD patients, 4, 4, 8 mg/kg TID, preliminary) is given as “mild”. For the same molecule, in data set [2] (setting [6]), the “Abdominal pain, number of patients” value came out at 1; the “Diarrhea, number of patients” value is 1; the “Flatulence, number of patients” value is 2.
